Experimental data taken from patent US9334256B2, “Agents and methods for treating ischemic and other diseases” (NoNO INC., priority 2011, dated 2016).
Entries after “also recorded” stand apart in the source; their conditions may differ.

How the values were obtained:
[1] = test system: rats subjected to lateral FPI; experiment: Distance traveled and activity post FPI; type: in vivo, rat; details: FIG. 4B
Text: (§1) Thus, M21 and TRPM7 inhibitors are effective treatments to reduce the damaging effects of neurotrauma, including concussions.

neurons = experiment: Sublethal neuronal stretch injury model, survival by PI fluorescence; type: cell-based; details: applied 1 hour after stretch injury, PI fluorescence 24 hours after; FIG. 3
Description: Likewise, TRPM7 inhibitors are also expected to provide neuroprotection to other types of brain injuries. […] This model is described in Arundine et al, (J. Neurosci, 2004:8106-23). TRPM7 inhibitors such as M21 were applied 1 hour after stretch injury and cells were assessed for survival by PI fluorescence 24 hours after the injury. […] Thus, this assay can be predictive of in vivo efficacy.

[2] = test system: rat brains subjected to concussive brain trauma; experiment: Fluid percussion injury (FPI) model, TTC staining of brain sections; type: in vivo; details: applied prior to the injury or 1 hour after; 2-6 atm injury; FIG. 1
Description: Inhibitors of TRPM7 were tested for their ability to provide neuroprotection to rat brains subjected to concussive brain trauma using a rodent model of fluid percussion injury (FPI). FPI was performed as described in the literature using 350-370 g male Sprague Dawley rats (Charles River, St. Constant, Quebec, Canada). In brief, 24 h before injury, the animal was anesthetized using 2% halothane and 2:1 nitrous oxide:oxygen. A 4.8 mm craniotomy was made with its center between the bregma and lambda and between the sagittal suture and right temporal ridge. A modified Leur-loc fitting was attached over the craniotomy and cemented in place using Acron MC/R dental acrylic (GC America, Alsip, Ill.). The Leur-loc was filled with saline, and a small piece of gelfoam was inserted. The incision was sutured, and the animal was returned to its cage overnight if not used same day. The following day, the incision was reopened, cleaned, and the gelfoam was removed. […] Injury severity was recorded using an oscilloscope attached to a transducer, and by sectioning the brains and staining with 2,3,5-Triphenyltetrazolium chloride staining (TTC). […]
Likewise, TRPM7 inhibitors are also expected to provide neuroprotection to other types of brain injuries. […] TRPM7 inhibitors such as M21 were applied 1 hour after stretch injury and cells were assessed for survival by PI fluorescence 24 hours after the injury. […]

TRPM7 ion channel = molecular target: T1, TRPM7 ion channel (Mus musculus, UniProt Q923J1); experiment: Whole-cell patch clamp of TRPM7 currents in HEK293 cells; type: cell-based; details: value shown = concentration at which the compound significantly inhibits the ion channel
T1 construct: expressed in transfected cells; host or cells: TRPM7-tet-on HEK293 cells
Description: To further understand the structure function relationships between the TRPM7 inhibitors identified in the TRPM7-dependent HEK death assay, the activity of a subset of these inhibitors described herein were tested for their ability to inhibit TRPM7 currents in cell systems. Whole-cell patch clamp recordings were used essentially as described to test the TRPM7 inhibitors in HEK293 cells, H9c2 cardiomyocytes and cultured neurons. […] Those that provide >10% inhibition of TRPM7 channel activity in the HEK293 cell system were labeled with the concentration tested (generally 5 uM). Thus, the compounds in this table marked with such a value are able to block the activity gof the TRPM7 ion channel. FIGS. 2A-C provide an example of this for the TRPM7 inhibitor 399 (Structure 9). […] Numbers in brackets indicate the number of independent tests, and the bars represent the SEM.
Whole-cell currents were recorded using an Axopatch 1D or MultiClamp 700B amplifier and were digitized at 10 kHz and low-pass filtered at 2 kHz, at room temperature. pClamp10 software was used for data acquisition and analysis. Patch electrodes were pulled from Borosilicate glass and fire polished to a resistance of 2-4 MΩ. All drugs were administrated directly to cell bodies under recording through the fast exchange perfusion system.
The intracellular solution (ICS) contains (mM) 145 Cs-methanesulfonate, 8 NaCl, l MgCl2, 4.1 CaCl2, 10 EGTA, and 10 HEPES, 5 ATP, pH at 7.4, with 300-305 mOsm. The extracellular solution (ECS) contains (mM) 140 NaCl, 5 KCl, 2 CaCl2, 20 HEPES, and 10 glucose, pH at 7.4 and with 315-320 mOsm.
Voltage stimuli lasting 250 ms were delivered at 5-s intervals with voltage ramps ranging from −100 to +100 mV. The current values at −80 mV and +80 mV on I-V curve represent the measures of inward and outward current respectively.
Table X and FIGS. 7-51 show screening data for several additional compounds that are variants of M5, M6 or M21. The synthesis of compounds of Table X and FIGS. 7-51 is shown in Appendices A-C. The compounds shown in FIGS. 7-51 can be related to the appropriate row of Table X by the compound number shown in the figures and in the first column of Table X. The compounds in Table X other than M5, M6 and M21 themselves, are believed to be novel. The Table provides a number identifying the compound, its structurer, molecular weight and its cluster (i.e., whether the compound resembles M5, M6 or M21). The three columns relations to PI uptake describe the results of screening the compounds in the type of assay from Example 1. […] The last two columns show an effect on proliferation of Weri retinoblastoma or HeLa cervical cancer cells. Inhibition of proliferation is a measure of anti-neoplastic activity. […] If no data is shown, no test was performed.

[3] = test system: rats subjected to lateral FPI; experiment: Rotarod performance after lateral FPI; type: in vivo, rat; details: FIG. 4A
Text: as §1

[4] = test system: neurons, hepatocytes, cardiomyocytes, retina; experiment: Survival after anoxia in cells and tissues; type: cell-based; details: summary statement

T1 sequence (Q923J1 whole entry): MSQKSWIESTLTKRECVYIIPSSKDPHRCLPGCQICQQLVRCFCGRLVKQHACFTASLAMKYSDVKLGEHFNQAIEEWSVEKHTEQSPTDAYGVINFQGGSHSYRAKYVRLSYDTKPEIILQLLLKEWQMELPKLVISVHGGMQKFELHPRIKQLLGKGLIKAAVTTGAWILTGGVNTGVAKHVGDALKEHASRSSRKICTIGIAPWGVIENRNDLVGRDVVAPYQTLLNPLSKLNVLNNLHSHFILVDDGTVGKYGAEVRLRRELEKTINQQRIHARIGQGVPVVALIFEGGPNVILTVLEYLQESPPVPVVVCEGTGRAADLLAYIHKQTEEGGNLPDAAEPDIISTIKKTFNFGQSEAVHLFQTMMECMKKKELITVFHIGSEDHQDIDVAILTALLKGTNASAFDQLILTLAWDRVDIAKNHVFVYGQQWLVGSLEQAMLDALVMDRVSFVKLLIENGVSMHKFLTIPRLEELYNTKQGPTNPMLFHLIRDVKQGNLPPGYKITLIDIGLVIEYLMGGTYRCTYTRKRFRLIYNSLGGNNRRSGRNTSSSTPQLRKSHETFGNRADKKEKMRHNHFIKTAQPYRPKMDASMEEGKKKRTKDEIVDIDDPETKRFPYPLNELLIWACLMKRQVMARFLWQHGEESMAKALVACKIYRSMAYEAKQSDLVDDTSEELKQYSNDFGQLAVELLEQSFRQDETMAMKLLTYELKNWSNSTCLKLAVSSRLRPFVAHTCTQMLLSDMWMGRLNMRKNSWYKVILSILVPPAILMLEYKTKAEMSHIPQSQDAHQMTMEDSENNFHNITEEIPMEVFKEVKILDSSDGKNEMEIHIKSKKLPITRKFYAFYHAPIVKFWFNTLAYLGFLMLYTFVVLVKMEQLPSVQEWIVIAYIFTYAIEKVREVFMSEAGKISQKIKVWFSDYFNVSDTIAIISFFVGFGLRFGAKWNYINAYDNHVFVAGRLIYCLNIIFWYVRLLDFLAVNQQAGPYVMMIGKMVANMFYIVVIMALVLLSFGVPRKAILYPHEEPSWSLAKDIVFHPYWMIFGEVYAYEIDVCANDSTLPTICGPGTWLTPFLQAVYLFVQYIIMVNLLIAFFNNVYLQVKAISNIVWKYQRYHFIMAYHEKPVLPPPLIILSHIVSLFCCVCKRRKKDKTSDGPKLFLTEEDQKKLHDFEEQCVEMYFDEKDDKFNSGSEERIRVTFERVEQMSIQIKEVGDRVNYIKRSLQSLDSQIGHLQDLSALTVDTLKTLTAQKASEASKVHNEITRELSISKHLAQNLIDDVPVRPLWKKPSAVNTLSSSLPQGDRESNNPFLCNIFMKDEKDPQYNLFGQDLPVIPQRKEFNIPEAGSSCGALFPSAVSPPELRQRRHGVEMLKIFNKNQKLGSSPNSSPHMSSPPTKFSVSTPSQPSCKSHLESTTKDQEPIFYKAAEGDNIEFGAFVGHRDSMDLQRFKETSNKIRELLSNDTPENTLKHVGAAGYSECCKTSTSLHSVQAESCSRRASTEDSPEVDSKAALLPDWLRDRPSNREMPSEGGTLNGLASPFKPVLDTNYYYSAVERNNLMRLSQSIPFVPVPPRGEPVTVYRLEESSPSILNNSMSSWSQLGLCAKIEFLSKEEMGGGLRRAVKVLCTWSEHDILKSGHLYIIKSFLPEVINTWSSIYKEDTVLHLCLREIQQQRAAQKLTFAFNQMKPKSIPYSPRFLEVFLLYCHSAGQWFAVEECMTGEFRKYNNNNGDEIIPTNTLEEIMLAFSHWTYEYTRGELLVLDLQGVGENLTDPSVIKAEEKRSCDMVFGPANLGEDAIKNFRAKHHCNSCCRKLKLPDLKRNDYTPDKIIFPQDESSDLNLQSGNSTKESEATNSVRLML

In the case of `Cc1c(Cc2ccc(Cl)c(Cl)c2)c(=O)oc2cc(O)ccc12` [Compound M21], the “distance traveled and activity post FPI” value [1] is reported as “comparable to uninjured animals”, the “protection from cell death after stretch injury” value (neurons) is reported as “can protect neurons from cell death due to stretch injuries; also recorded: increased protection from cell death” and the “protection of rat brains from fluid percussion-induced neuronal damage” value [2] is reported as “able to protect the brain from injuries sustained from concussive trauma; also recorded: significant protection”. The TRPM7 current (TRPM7 ion channel) was 5 μM (Those that provide >10% inhibition of TRPM7 channel activity in the HEK293 cell system were labeled with the concentration tested (generally 5 uM)), the “time able to maintain balance on the Rotarod relative to injured animals treated with vehicle alone” value [3] was “twice the time” and the “Rotarod performance (mean latency)” value ([3]; first day post injury, compared to FPI+Vehicle) was “near wild type levels of performance”. The survival after anoxia [4] was “broadly effective in increasing survival after anoxia in various tissues”.
